Like-named read-outs stand apart in the source and are kept apart here.
Target: T1, BRD9 (Homo sapiens, UniProt Q9H8M2)
T1 sequence (Q9H8M2 1-597): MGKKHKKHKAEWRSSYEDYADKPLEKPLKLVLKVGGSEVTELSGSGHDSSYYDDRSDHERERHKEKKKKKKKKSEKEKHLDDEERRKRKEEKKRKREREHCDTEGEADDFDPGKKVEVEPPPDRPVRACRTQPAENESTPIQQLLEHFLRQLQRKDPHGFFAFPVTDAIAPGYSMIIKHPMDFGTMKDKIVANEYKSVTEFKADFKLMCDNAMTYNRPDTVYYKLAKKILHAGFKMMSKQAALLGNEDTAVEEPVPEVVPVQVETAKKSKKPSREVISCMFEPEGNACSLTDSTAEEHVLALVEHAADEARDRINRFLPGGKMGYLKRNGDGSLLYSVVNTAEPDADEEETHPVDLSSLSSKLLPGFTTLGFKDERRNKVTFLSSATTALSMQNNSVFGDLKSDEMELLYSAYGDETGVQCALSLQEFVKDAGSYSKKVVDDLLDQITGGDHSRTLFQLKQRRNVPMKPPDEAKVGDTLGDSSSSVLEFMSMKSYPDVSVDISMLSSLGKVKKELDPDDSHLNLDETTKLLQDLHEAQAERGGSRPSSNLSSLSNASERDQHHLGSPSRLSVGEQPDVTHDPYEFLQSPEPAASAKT
Assay: Degradation of BRD9 (IF), immunofluorescence in MV4-11 cells, 24 hours (Assay Protocol 2)
Assay type: cell-based
Set-up: A suspension of MV4-11 cells (ATCC CRL-9591) was prepared; host or cells: MV4-11
Conditions: BRD9 degradation
How it was run: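 % BRD9 remaining, scaled between DMSO (high) and 100 nM CFT-8634 (low) control wells, derives from mean Alexa 647 contrast in central nuclei by high-content imaging. MV4-11 cells had 24 h compound exposure at 37° C. before PFA fixation, Triton permeabilisation and anti-BRD9 E4Q3F immunostaining.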

[1] = Assay protocol 2, read-out: DC50
[2] = MV4-11, Assay protocol 2, read-out: Dmax
[3] = MV4-11, Table 4, determined according to Assay Protocol 2, read-out: Dmax^2
[4] = Table 4, determined according to Assay Protocol 2, read-out: DC50^2

Row | Structure (SMILES) | DC50 [1] [nM] | Dmax [2] [%] | Dmax [3] [%] | DC50 [4] [nM]
1 | COc1cc(-c2cn(C)c(=O)c(C)c2C)cc(OC)c1CN1CCN(Cc2cccc3c2CCN(C(=O)/C(C#N)=C/C(C)(C)C)[C@H]3C2CC2)C2(CC2)C1 (single isomer, unassigned) [Compound C99, (E/Z)-2-(1-cyclopropyl-5-((7-(2,6-dimethoxy-4-(1,4,5-trimethyl-6-oxo-1,6-dihydropyridin-3-yl)benzyl)-4,7-diazaspiro[2.5]octan-4-yl)methyl)-1,2,3,4-tetrahydroisoquinoline-2-carbonyl)-4,4-dimethylpent-2-enenitrile] | < 1.25 | > 75 | – | –
2 | CCC[C@H]1c2cccc(CN3CCN(Cc4c(OC)cc(-c5cn(C)c(=O)c(C)c5C)cc4OC)CC34CC4)c2CCN1C(=O)/C(C#N)=C/C(C)(C)C (single isomer, unassigned) [Compound C100, (E/Z)-2-(5-((7-(2,6-dimethoxy-4-(1,4,5-trimethyl-6-oxo-1,6-dihydropyridin-3-yl)benzyl)-4,7-diazaspiro[2.5]octan-4-yl)methyl)-1-propyl-1,2,3,4-tetrahydroisoquinoline-2-carbonyl)-4,4-dimethylpent-2-enenitrile] | < 1.25 | > 75 | – | –
3 | CCC[C@@H]1c2cccc(CN3CCN(Cc4c(OC)cc(-c5cn(C)c(=O)c(C)c5C)cc4OC)CC34CC4)c2CCN1C(=O)/C(C#N)=C/C(C)(C)C (single isomer, unassigned) [Compound C101, (E/Z)-2-(5-((7-(2,6-dimethoxy-4-(1,4,5-trimethyl-6-oxo-1,6-dihydropyridin-3-yl)benzyl)-4,7-diazaspiro[2.5]octan-4-yl)methyl)-1-propyl-1,2,3,4-tetrahydroisoquinoline-2-carbonyl)-4,4-dimethylpent-2-enenitrile] | 25 to 1000 | 40 to 70 | – | –
4 | COc1cc(-c2cn(C)c(=O)c(C)c2C)cc(OC)c1CN1CCN(Cc2cccc3c2CCN(C(=O)/C(C#N)=C/C(C)(C)CF)C3C(C)C)CC12CC2 (single isomer, unassigned) [Compound C102, (E/Z)-2-(5-((4-(2,6-dimethoxy-4-(1,4,5-trimethyl-6-oxo-1,6-dihydropyridin-3-yl)benzyl)-4,7-diazaspiro[2.5]octan-7-yl)methyl)-1-isopropyl-1,2,3,4-tetrahydroisoquinoline-2-carbonyl)-5-fluoro-4,4-dimethylpent-2-enenitrile] | 25 to 1000 | 40 to 70 | – | –
5 | COc1cc(-c2cn(C)c(=O)c(C)c2C)cc(OC)c1CN1CCN(Cc2cccc3c2CCN(C(=O)/C(C#N)=C/C(C)(C)CF)[C@@H]3C(C)C)CC12CC2 (single isomer, unassigned) [Compound C103, (E/Z)-2-(5-((4-(2,6-dimethoxy-4-(1,4,5-trimethyl-6-oxo-1,6-dihydropyridin-3-yl)benzyl)-4,7-diazaspiro[2.5]octan-7-yl)methyl)-1-isopropyl-1,2,3,4-tetrahydroisoquinoline-2-carbonyl)-5-fluoro-4,4-dimethylpent-2-enenitrile] | < 1.25 | > 75 | – | –
6 | CC[C@H]1c2cccc(CN3CCN(Cc4c(OC)cc(-c5cn(C)c(=O)c(C)c5C)cc4OC)C4(CC4)C3)c2CCN1C(=O)/C(C#N)=C/C(C)(C)CF (single isomer, unassigned) [Compound C104, (E/Z)-2-(5-((4-(2,6-dimethoxy-4-(1,4,5-trimethyl-6-oxo-1,6-dihydropyridin-3-yl)benzyl)-4,7-diazaspiro[2.5]octan-7-yl)methyl)-1-ethyl-1,2,3,4-tetrahydroisoquinoline-2-carbonyl)-6-fluoro-4,4-dimethylpent-2-enenitrile] | 25 to 1000 | 40 to 70 | – | –
7 | CC[C@@H]1c2cccc(CN3CCN(Cc4c(OC)cc(-c5cn(C)c(=O)c(C)c5C)cc4OC)C4(CC4)C3)c2CCN1C(=O)/C(C#N)=C/C(C)(C)CF (single isomer, unassigned) [Compound C105, (E/Z)-2-(5-((4-(2,6-dimethoxy-4-(1,4,5-trimethyl-6-oxo-1,6-dihydropyridin-3-yl)benzyl)-4,7-diazaspiro[2.5]octan-7-yl)methyl)-1-ethyl-1,2,3,4-tetrahydroisoquinoline-2-carbonyl)-6-fluoro-4,4-dimethylpent-2-enenitrile] | < 1.25 | > 75 | – | –
8 | COc1cc(-c2cn(C)c(=O)c(C)c2C)cc(OC)c1CN1CCCN(Cc2ccc3c(c2)[C@@H](C)N(C(=O)/C(C#N)=C/C(C)(C)C)CC3)CC1 (single isomer, unassigned) [Compound C107] | 10 to 25 | 40 to 70 | – | –
9 | COc1cc(-c2cn(C)c(=O)c(C)c2C)cc(OC)c1CN1CCC(Oc2cccc3c2CCN(C(=O)/C(C#N)=C/C(C)(C)C)C3C)C1 (stereo in doubt) [Compound B134, (E)-2-(5-(((S)-1-(2,6-dimethoxy-4-(1,4,5-trimethyl-6-oxo-1,6-dihydropyridin-3-yl)benzyl)pyrrolidin-3-yl)oxy)-1-methyl-1,2,3,4-tetrahydroisoquinoline-2-carbonyl)-4,4-dimethylpent-2-enenitrile] | 25 to 1000 | 40 to 70 | – | –
10 | COc1cc(-c2cn(C)c(=O)c(C)c2C)cc(OC)c1CN(C)C1CCN(C(=O)/C(C#N)=C/c2cccc(C(F)(F)F)n2)CC1 [BRD9aa, (E/Z)-2-(4-((2,6-dimethoxy-4-(1,4,5-trimethyl-6-oxo-1,6-dihydropyridin-3-yl)benzyl)(methyl)amino)piperidine-1-carbonyl)-3-(6-(trifluoromethyl)pyridin-2-yl)acrylonitrile] | – | – | > 70 | –
11 | COc1cc(-c2cn(C)c(=O)c(C)c2C)cc(OC)c1CN1CCC2(CC1)CCN(C(=O)/C(C#N)=C/c1cccc(Br)n1)CC2 [BRD9r, (E/Z)-3-(6-bromopyridin-2-yl)-2-(9-(2,6-dimethoxy-4-(1,4,5-trimethyl-6-oxo-1,6-dihydropyridin-3-yl)benzyl)-3,9-diazaspiro[5.5]undecane-3-carbonyl)acrylonitrile] | – | – | > 70 | > 200
12 | COc1cc(-c2cn(C)c(=O)c(C)c2C)cc(OC)c1C(=O)N1CCN(C(=O)/C(C#N)=C/C(C)(C)C)CC1 [BRD9s, (E/Z)-2-(4-(2,6-dimethoxy-4-(1,4,5-trimethyl-6-oxo-1,6-dihydropyridin-3-yl)benzoyl)piperazine-1-carbonyl)-4,4-dimethylpent-2-enenitrile] | – | – | 50 to 70 | < 25
13 | COc1cc(-c2cn(C)c(=O)c(C)c2C)cc(OC)c1C(=O)N1CCCN(C(=O)/C(C#N)=C/C(C)(C)C)CC1 [BRD9v, (E/Z)-2-(4-(2,6-dimethoxy-4-(1,4,5-trimethyl-6-oxo-1,6-dihydropyridin-3-yl)benzoyl)-1,4-diazepane-1-carbonyl)-4,4-dimethylpent-2-enenitrile] | – | – | 50 to 70 | < 25
14 | COc1cc(-c2cn(C)c(=O)c(C)c2C)cc(OC)c1CN(C)C1CCN(C(=O)/C(C#N)=C/c2cccc(Br)n2)CC1 [BRD9z, (E/Z)-3-(6-bromopyridin-2-yl)-2-(4-((2,6-dimethoxy-4-(1,4,5-trimethyl-6-oxo-1,6-dihydropyridin-3-yl)benzyl)(methyl)amino)piperidine-1-carbonyl)acrylonitrile] | – | – | > 70 | > 200
15 | COc1cc(-c2cn(C)c(=O)c(C)c2C)cc(OC)c1CN1CCC2(CC1)CCN(c1cccc3c1CCN(C(=O)/C(C#N)=C/C(C)(C)C)C3C)C2 (centres unmarked) [Compound B63, (E2Z)-2-(5-(8-(2,6-dimethoxy-4-(1,4,5-trimethyl-6-oxo-1,6-dihydropyridin-3-yl)benzyl)-2,8-diazaspiro[4.5]decan-2-yl)-1-methyl-1,2,3,4-tetrahydroisoquinoline-2-carbonyl)-4,4-dimethylpent-2-enenitrile] | 1.25 to 10 | 40 to 70 | – | –
16 | COc1cc(-c2cn(C)c(=O)c(C)c2C)cc(OC)c1CN1CCN(C(=O)[C@H]2CN(C(=O)/C(C#N)=C/C(C)(C)C)C[C@@H]2C)CC1 [Compound B214] | – | – | 50 to 70 | > 200
17 | COc1cc(-c2cn(C)c(=O)c3[nH]ncc23)cc(OC)c1CN1CCN(C(=O)/C(C#N)=C/C(C)(C)C)CC1 [Compound B215, (E/Z)-2-(4-(2,6-dimethoxy-4-(6-methyl-7-oxo-6,7-dihydro-1H-pyrazolo[3,4-c]pyridin-4-yl)benzyl)piperazine-1-carbonyl)-4,4-dimethylpent-2-enenitrile] | 25 to 1000 | 40 to 70 | – | –
18 | COc1cc(-c2cn(C)c(=O)c(C)c2C)cc(OC)c1CN1CCN(Cc2ccc3c(c2)CN(C(=O)/C(C#N)=C/C(C)(C)C)CC3)C2(CC2)C1 [Compound C1, (E/Z)-2-(7-((7-(2,6-dimethoxy-4-(1,4,5-trimethyl-6-oxo-1,6-dihydropyridin-3-yl)benzyl)-4,7-diazaspiro[2.5]octan-4-yl)methyl)-1,2,3,4-tetrahydroisoquinoline-2-carbonyl)-4,4-dimethylpent-2-enenitrile] | < 1.25 | > 75 | – | –
